Results on 9 compounds are retold here after US9296787B2, “Antitumor peptide and use thereof” (priority 2011, dated 2016).

Where two headings read alike, the source gives them in different places. Positions of bridges follow the written chain, without caps; N, C: chain ends. Residues, ends and D or L forms follow the SMILES beside them. No end group written: not given here.

Assay [1] relates to mouse neuroblastoma cell line (N1E-115). It counts as cell-based. Particulars: for antitumor activity (tumor cell proliferation-inhibiting activity), in words: N1E-115, 50 or 100 μM, summary of Table 3; for A450(-A620) After 24 hers: WST-8 absorbance after 24 hours. The procedure:
Some of the sample peptides obtained in Example 1 were tested for antitumor activity against target cultured tumor cells. Details of the assay are as described below.
(§1) As the tumor cells tested, a commercial mouse neuroblastoma cell line (N1E-115) was used. The cell line was cultured beforehand in a DMEM medium (i.e. Dulbecco MEM medium (DMEM medium, a Gibco product) containing 10% fetal bovine serum (FBS, a Gibco product), 2 mM of L-glutamine, 50 unit/mL of penicillin, and 50 μg/mL of streptomycin), and the number of cells per well in a 96-well plate was adjusted to approximately 5×10^3. The volume of the medium for this was 100 μL per well.
(§2) Subsequently, the stock solution of each sample peptide shown in Table 3 was added to each well to a peptide concentration in the well of 50 μM or 100 μM.
(§3) After the sample peptides were added as described above, the 96-well plate was placed in a CO2 incubator and cultured without agitation at 37° C. under 5% CO2. At the time of the peptide addition (at the start of treatment) and at 6 hours or 24 hours from the peptide addition and the start of incubation, the viability status of the cultured cells tested was analyzed with a commercial colorimetric assay kit. In particular, to each cell-culturing well, “water-soluble tetrazolium salt (WST-8)” was added as a colorimetric reagent; after two hours of incubation following the addition, the cell culture medium supplied with the colorimetric reagent was collected; and the level of inhibition of cell proliferation was evaluated by colorimetry, measuring the absorbance at a wavelength of 450 nm (values corrected with the absorbance at a wavelength of 620 nm, A450-A620) based on reduction of tetrazolium salt. Based on the absorbance at the time of the sample peptide addition (at the start of treatment), the percent decrease in the absorbance after 6 hours or 24 hours was determined as the cell proliferation inhibition rate (%).
A general note: Tetrazolium assays rely on reduction of a dye to a coloured formazan, in cell work by metabolically active cells.

For assay [2], the system named is human alveolar basal epithelial adenocarcinoma cells, A549. It is filed as cell-based. Particulars: for A450(-A620) After 24 hers: A549, peptide 50 μM, WST-8 absorbance after 24 hours. On the procedure:
as §1, §2, §3
Cells forming a […] (human alveolar basal epithelial adenocarcinoma cells, A549) were substituted for the tumor cells tested and the same test as Example 2 described above was carried out. In the present example, the peptides of Samples 1 to 13, 15 to 22, 24, 29, 35 and 40 were used.

Take GPHHYWYHLRLPKKRTLRKNDRKKR [Sample 38]: in assay [1], the “antitumor activity (tumor cell proliferation-inhibiting activity), in words” value is recorded as “high antitumor activity”. Moreover, the “A450(-A620) After 24 hers” value in assay [1] (N1E-115, peptide 50 μM) stood at 0.4605; in assay [1] (N1E-115, peptide 100 μM) it was 0.3592.

In the case of EFEYFHPATFRLKKRTLRKNDRKKR [Sample 42], the “antitumor activity (tumor cell proliferation-inhibiting activity), in words” value in assay [1] was “high antitumor activity”. In addition, the “A450(-A620) After 24 hers” value in assay [1] (N1E-115, peptide 50 μM) was 0.5145; in assay [1] (N1E-115, peptide 100 μM) it was 0.4114.

SLLPHSNHAKHY [Sample 19, SLLPHSNHAKHY]: the “A450(-A620) After 24 hers” value in assay [2] stood at 1.8271.

Regarding `CSCC[C@@H]1NC(=O)[C@@H]2CCCN2C(=O)[C@H](CCCNC(=N)N)NC(=O)[C@H](CCCCN)NC(=O)[C@H](CCC(=O)O)NC(=O)[C@H](Cc2ccc(O)cc2)NC(=O)[C@H](CO)NC(=O)[C@@H](N)CSSC[C@@H](C(=O)O)NC1=O` [Sample 11, CSYEKRPMC] (H-CSYEKRPMC-OH; disulfide 1-9; N-terminus and C-terminus assumed), the “antitumor activity (tumor cell proliferation-inhibiting activity), in words” value in assay [2] (A549, 50 μM, 24 hours, summary of Table 5) is “high antitumor activity”. Also, the “A450(-A620) After 24 hers” value in assay [2] is 1.6741.

Regarding TPSLPPTMFRLT [Sample 15, TPSLPPTMFRLT], the “A450(-A620) After 24 hers” value in assay [2] is listed as 1.6022.

As for `CC(C)C[C@@H]1NC(=O)[C@@H](N)CSSC[C@@H](C(=O)O)NC(=O)[C@H](CO)NC(=O)[C@H]([C@@H](C)O)NC(=O)[C@H](Cc2ccc(O)cc2)NC(=O)[C@H](CO)NC(=O)[C@H](CCCCN)NC(=O)[C@H]([C@@H](C)O)NC1=O` [Sample 12, CLTKSYTSC] (H-CLTKSYTSC-OH; disulfide 1-9; N-terminus and C-terminus assumed), the “A450(-A620) After 24 hers” value in assay [2] is 1.9165.

For GPHLGMNQRRRPKKRTLRKNDRKKR [Sample 43], the “antitumor activity (tumor cell proliferation-inhibiting activity), in words” value in assay [1] is on record as “high antitumor activity”. Also, the “A450(-A620) After 24 hers” value in assay [1] (N1E-115, peptide 50 μM) worked out at 0.4784; in assay [1] (N1E-115, peptide 100 μM), 0.4110.

As to `CC(C)C[C@H](NC(=O)[C@@H](NC(=O)[C@H](CCCNC(=N)N)NC(=O)[C@H](CCCCN)NC(=O)[C@H](CCCCN)NC(=O)[C@@H]1CSSC[C@H](N)C(=O)NCC(=O)N[C@@H](Cc2c[nH]cn2)C(=O)N[C@@H](CCCNC(=N)N)C(=O)N2CCC[C@H]2C(=O)N[C@@H](Cc2ccc(O)cc2)C(=O)N[C@@H](CCC(N)=O)C(=O)N[C@@H](Cc2ccc(O)cc2)C(=O)N1)[C@@H](C)O)C(=O)N[C@@H](CCCNC(=N)N)C(=O)N[C@@H](CCCCN)C(=O)N[C@@H](CC(N)=O)C(=O)N[C@@H](CC(=O)O)C(=O)N[C@@H](CCCNC(=N)N)C(=O)N[C@@H](CCCCN)C(=O)N[C@@H](CCCCN)C(=O)N[C@@H](CCCNC(=N)N)C(=O)O` [Sample 26] (H-CGHRPYQYCKKRTLRKNDRKKR-OH; disulfide 1-9; N-terminus and C-terminus assumed), the “antitumor activity (tumor cell proliferation-inhibiting activity), in words” value in assay [1] is on record as “high antitumor activity”. Besides, the “A450(-A620) After 24 hers” value in assay [1] (N1E-115, peptide 50 μM) worked out at 0.4550; in assay [1] (N1E-115, peptide 100 μM), 0.3643.

On to `CC(C)C[C@H](NC(=O)[C@@H](NC(=O)[C@H](CCCNC(=N)N)NC(=O)[C@H](CCCCN)NC(=O)[C@H](CCCCN)NC(=O)[C@@H]1CSSC[C@H](N)C(=O)N[C@@H](CO)C(=O)N[C@@H](CO)C(=O)N[C@@H](C)C(=O)N[C@@H]([C@@H](C)O)C(=O)NCC(=O)N[C@@H](CCCCN)C(=O)N[C@@H](CO)C(=O)N1)[C@@H](C)O)C(=O)N[C@@H](CCCNC(=N)N)C(=O)N[C@@H](CCCCN)C(=O)N[C@@H](CC(N)=O)C(=O)N[C@@H](CC(=O)O)C(=O)N[C@@H](CCCNC(=N)N)C(=O)N[C@@H](CCCCN)C(=O)N[C@@H](CCCCN)C(=O)N[C@@H](CCCNC(=N)N)C(=O)O` [Sample 23] (H-CSSATGKSCKKRTLRKNDRKKR-OH; disulfide 1-9; N-terminus and C-terminus assumed), for which the “antitumor activity (tumor cell proliferation-inhibiting activity), in words” value in assay [1] is recorded as “high antitumor activity”. The “A450(-A620) After 24 hers” value in assay [1] (N1E-115, peptide 50 μM) amounted to 0.4127; in assay [1] (N1E-115, peptide 100 μM), 0.3841.
